Reference: US11524006B2, “Crenolanib for treating TRK kinase associated proliferative disorders” (Arog Pharmaceuticals, Inc., priority 2020, dated 2022)

How the values were obtained:
[1] = tested on: TRK fusion positive cancers; conditions: cited from earlier work
[2] = molecular target: T1, TRKA-TFG (Homo sapiens, UniProt P04629); experiment: Reaction Biology HotSpot Kinase assay, direct enzyme phosphorylation; assay type: biochemical; conditions: Fusion TRKA-TFG
T1 construct: partner gene encoding one or more dimerization domains with the tyrosine kinase domains of one of the TRK genes; TFG (fusion partner); purchased Reaction Biology (HotSpot Kinase assay panel); the other entry of the earlier key: TFG (Q92734, Protein TFG)
Procedure: (§1) Direct enzyme phosphorylation assay. The Reaction Biology HotSpot Kinase assay was used to screen the present invention against a panel of normal TRKA, TRKB, and TRKC and mutated TRK kinases. For assays of all kinases, the TRK enzyme was prepared in base reaction buffer (20 mM Hepes (pH 7.5), 10 mM MgCl2, 1 mM EGTA, 0.02% Brij35, 0.02 mg/ml BSA, 0.1 mM Na3VO4, 2 mM DTT, 1% DMSO). The reaction was initiated by the addition of 33P-ATP (10 μCi/μL) into the mixture. The reaction mixture was incubated for 120 minutes at room temperature. Radioactivity was detected by filter-binding method, and kinase activity expressed as the percent remaining kinase activity in test samples compared to vehicle reactions. IC50 values and curve fitting were obtained using Prism (GraphPad Software).
(§2) The activity of the besylate salt of the present invention was determined using a direct enzymatic Reaction Biology HotSpot Kinase assay. All IC50 values are presented in nanomolar concentration. In the direct enzymatic measurement assay, the IC50 of the besylate salt of the current invention against the various TRK kinases is shown in Table 1.

[3] = molecular target: T2, TRKA-TPM3 (Homo sapiens, UniProt P04629); experiment: as above; assay type: biochemical; conditions: Fusion TRKA-TPM3
T2 construct: fused on or other part: N-terminal part of tropomyosin 3 (coiled-coil dimerisation part); P06753 (Tropomyosin alpha-3 chain)
Procedure: as §1, §2

[4] = molecular target: T3, TRKC-G696A (Homo sapiens, UniProt Q16288, G696A); experiment: as above; assay type: biochemical; conditions: xDFG Mutant TRKC-G696A
T3 construct: purchased Reaction Biology (HotSpot Kinase assay panel)
Procedure: as §1, §2

[5] = molecular target: T4, TRKA-L657M (Homo sapiens, UniProt P04629, L657M); experiment: as above; assay type: biochemical; conditions: Other Mutant TRKA-L657M
T4 construct: purchased Reaction Biology (HotSpot Kinase assay panel)
Procedure: as §1, §2

[6] = molecular target: T5, TRKA-G667C (Homo sapiens, UniProt P04629, G667C); experiment: as above; assay type: biochemical; conditions: xDFG Mutant TRKA-G667C
T5 construct: purchased Reaction Biology (HotSpot Kinase assay panel)
Procedure: as §1, §2

[7] = molecular target: T6, TRKA-TPR (Homo sapiens, UniProt P04629); experiment: as above; assay type: biochemical; conditions: Fusion TRKA-TPR
T6 construct: fused on or other part: N-terminal coiled-coil part of TPR (translocated promoter region protein); P12270 (Nucleoprotein TPR)
Procedure: as §1, §2

[8] = molecular target: T7, TRKA-A608D (Homo sapiens, UniProt P04629, A608D); experiment: as above; assay type: biochemical; conditions: Other Mutant TRKA-A608D
T7 construct: purchased Reaction Biology (HotSpot Kinase assay panel)
Procedure: as §1, §2

[9] = molecular target: T8, TRKA-G667S (Homo sapiens, UniProt P04629, G667S); experiment: as above; assay type: biochemical; conditions: xDFG Mutant TRKA-G667S
T8 construct: purchased Reaction Biology (HotSpot Kinase assay panel)
Procedure: as §1, §2

[10] = molecular target: T9, TRKC-L686M (Homo sapiens, UniProt Q16288, L686M); experiment: as above; assay type: biochemical; conditions: Other Mutant TRKC-L686M
T9 construct: purchased Reaction Biology (HotSpot Kinase assay panel)
Procedure: as §1, §2

T8 sequence (P04629 33-796 G667S): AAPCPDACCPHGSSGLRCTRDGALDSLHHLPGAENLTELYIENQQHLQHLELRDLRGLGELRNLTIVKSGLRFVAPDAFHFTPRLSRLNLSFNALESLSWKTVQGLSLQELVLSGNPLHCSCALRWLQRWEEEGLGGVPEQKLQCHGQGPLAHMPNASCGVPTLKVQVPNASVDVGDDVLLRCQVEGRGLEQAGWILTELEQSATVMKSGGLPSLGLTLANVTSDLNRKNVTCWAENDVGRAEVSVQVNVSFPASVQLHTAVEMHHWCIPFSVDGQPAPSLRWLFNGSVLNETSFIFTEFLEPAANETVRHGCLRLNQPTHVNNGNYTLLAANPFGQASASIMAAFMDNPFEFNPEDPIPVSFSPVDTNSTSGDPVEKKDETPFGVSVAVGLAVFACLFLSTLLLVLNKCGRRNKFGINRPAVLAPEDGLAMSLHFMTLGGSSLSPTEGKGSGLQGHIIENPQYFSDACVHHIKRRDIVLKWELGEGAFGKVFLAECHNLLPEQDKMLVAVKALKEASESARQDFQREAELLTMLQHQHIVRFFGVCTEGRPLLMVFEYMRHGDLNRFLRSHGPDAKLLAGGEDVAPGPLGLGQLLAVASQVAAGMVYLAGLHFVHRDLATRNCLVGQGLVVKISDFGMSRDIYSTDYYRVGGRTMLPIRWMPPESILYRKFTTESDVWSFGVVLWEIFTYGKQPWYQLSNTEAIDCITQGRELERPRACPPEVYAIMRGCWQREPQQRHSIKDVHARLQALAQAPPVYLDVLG
T9 sequence (Q16288 32-839 L686M): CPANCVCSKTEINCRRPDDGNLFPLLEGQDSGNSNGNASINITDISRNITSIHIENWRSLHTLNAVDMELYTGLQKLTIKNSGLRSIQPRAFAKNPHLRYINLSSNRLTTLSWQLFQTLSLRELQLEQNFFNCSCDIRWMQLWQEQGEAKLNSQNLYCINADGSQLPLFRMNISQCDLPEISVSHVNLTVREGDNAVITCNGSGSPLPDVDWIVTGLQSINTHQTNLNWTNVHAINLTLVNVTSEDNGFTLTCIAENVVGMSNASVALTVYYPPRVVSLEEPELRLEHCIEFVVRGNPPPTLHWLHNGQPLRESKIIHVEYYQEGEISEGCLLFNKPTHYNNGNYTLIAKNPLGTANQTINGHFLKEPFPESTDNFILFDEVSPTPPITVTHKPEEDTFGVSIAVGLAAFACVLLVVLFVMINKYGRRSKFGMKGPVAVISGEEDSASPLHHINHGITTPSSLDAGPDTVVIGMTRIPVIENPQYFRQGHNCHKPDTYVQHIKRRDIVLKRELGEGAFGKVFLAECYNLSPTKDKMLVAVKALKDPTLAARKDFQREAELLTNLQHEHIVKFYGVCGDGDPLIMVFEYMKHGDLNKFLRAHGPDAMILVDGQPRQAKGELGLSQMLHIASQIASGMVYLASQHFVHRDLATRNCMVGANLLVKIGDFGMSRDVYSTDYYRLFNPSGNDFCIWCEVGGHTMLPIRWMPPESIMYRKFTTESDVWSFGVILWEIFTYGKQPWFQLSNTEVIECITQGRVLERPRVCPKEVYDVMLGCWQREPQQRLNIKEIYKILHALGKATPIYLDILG
T3 sequence (Q16288 32-839 G696A): as the sequence (Q16288 32-839 L686M) above, with M655L, G665A counted along it
T6 sequence (P04629 510-796 limits assumed): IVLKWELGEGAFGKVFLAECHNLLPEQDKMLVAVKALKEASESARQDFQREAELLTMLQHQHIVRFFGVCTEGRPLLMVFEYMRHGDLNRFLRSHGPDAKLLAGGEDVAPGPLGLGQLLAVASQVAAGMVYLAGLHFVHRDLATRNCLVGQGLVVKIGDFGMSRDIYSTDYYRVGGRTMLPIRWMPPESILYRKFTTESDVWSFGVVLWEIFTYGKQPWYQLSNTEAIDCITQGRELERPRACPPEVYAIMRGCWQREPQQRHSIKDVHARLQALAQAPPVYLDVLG
T2 sequence (P04629 510-796 limits assumed): as above
T5 sequence (P04629 33-796 G667C): as the sequence (P04629 33-796 G667S) above, with S635C counted along it
T1 sequence (P04629 with tags, fused parts or gaps): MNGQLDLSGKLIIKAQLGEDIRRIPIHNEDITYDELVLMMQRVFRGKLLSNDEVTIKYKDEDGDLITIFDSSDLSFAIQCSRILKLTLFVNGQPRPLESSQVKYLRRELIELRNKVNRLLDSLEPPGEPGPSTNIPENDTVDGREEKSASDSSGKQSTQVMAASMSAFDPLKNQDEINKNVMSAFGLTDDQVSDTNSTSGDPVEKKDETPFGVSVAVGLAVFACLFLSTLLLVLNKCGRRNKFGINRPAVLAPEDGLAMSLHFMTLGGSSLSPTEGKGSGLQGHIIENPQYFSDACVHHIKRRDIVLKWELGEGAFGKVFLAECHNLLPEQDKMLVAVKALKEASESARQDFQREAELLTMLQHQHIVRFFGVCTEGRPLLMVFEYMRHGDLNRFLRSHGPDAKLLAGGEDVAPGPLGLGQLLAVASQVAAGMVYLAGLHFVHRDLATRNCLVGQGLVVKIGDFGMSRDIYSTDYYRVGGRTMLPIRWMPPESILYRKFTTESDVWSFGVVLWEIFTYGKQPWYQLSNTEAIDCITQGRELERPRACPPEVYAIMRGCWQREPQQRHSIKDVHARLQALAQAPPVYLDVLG
T4 sequence (P04629 33-796 L657M): as the sequence (P04629 33-796 G667S) above, with L625M, S635G counted along it
T7 sequence (P04629 33-796 A608D): as the sequence (P04629 33-796 G667S) above, with A576D, S635G counted along it

Row | SMILES | clinical response in assessed patients ([1]; assessed patients) [%] | patients progressed within 1 year ([1]; within 1 year) [%] | IC50 [2] [nM] | IC50 [3] [nM] | IC50 [4] [nM] | IC50 [5] [nM] | IC50 [6] [nM] | IC50 [7] [nM] | IC50 [8] [nM] | IC50 [9] [nM] | IC50 [10] [nM]
1 | O=C(Nc1cnn2ccc(N3CCC[C@@H]3c3cc(F)ccc3F)nc12)N1CC[C@H](O)C1 [Larotrectinib] | 75 | 45 | – | – | – | – | – | – | – | – | –
2 | CC1(COc2ccc3c(c2)ncn3-c2ccc3cccc(N4CCC(N)CC4)c3n2)COC1 [crenolanib besylate, Crenolanib Besylate] | – | – | 3.95 | 4.34 | 5.69 | 79.7 | 5 | 3.98 | 38.7 | 4.52 | 184
